Test results published in patent publication US11708344B2, “Flavone derivatives for the treatment and prophylaxis of hepatitis B virus disease” (Hoffmann-La Roche Inc., priority 2018, dated 2023).

Tested on: HBeAg (surrogate marker for cccDNA) in HepDES19 cells
Assay: Engineered HepDES19 primary screen assay (HBeAg ELISA)
Type: cell-based, HBV
Conditions: Hepatitis B virus, HepDES19, 120 h, read-out: IC50 (HBeAg level, HepDES19 primary screen assay), HepDES19 cells, 5 days compound incubation, HBeAg ELISA
How it was run: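 IC50 values come from 4-parameter logistic fits of HBeAg ELISA signal, the cccDNA surrogate, with CCK-8 run in parallel for viability. Compounds at half-log dilutions with 1% DMSO were applied for 5 days at 37 °C to HepDES19 cells previously cultured 8 days without Tet.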

For `O=c1cc(-c2ccc(Br)cc2OCCO[C@H]2C[C@@H](C(=O)O)C2)oc2c(Cl)cccc12` [Example C003-A, Cis-3-[2-[5-bromo-2-(8-chloro-4-oxo-chromen-2-yl)phenoxy]ethoxy]cyclobutanecarboxylic acid], the IC50 was 1.07 µM.
